Assay results published in patent publication US8497381B2, “Antagonists of prostaglandin D2 receptors” (Panmira Pharmaceuticals, LLC, priority 2008, dated 2013).

Target: T1, human DP2 receptor (Homo sapiens, UniProt Q9Y5Y4)
T1 construct: expressed in transfected cells
T1 sequence (Q9Y5Y4 1-395): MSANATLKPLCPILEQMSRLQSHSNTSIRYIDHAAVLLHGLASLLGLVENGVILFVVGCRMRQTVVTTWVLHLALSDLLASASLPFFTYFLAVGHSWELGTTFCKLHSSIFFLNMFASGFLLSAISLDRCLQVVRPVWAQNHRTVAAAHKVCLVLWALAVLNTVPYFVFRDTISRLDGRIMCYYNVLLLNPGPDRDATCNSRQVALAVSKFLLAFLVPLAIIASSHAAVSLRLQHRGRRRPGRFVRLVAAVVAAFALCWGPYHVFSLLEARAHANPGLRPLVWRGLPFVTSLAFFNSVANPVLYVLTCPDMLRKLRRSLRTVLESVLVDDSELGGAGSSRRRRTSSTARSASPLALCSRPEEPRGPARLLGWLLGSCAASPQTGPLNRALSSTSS
Assay: DP2/CRTH2 binding assay (radioligand binding using [3H]PGD2)
Details: [3H]PGD2, membranes of HEK293 cells stably expressing recombinant human DP2; read-out: hDP2 binding
Procedure: The ability of a compound to bind to the human DP2 receptor is assessed via a radioligand binding assay using [^3H]PGD2. HEK293 cells stably expressing recombinant human DP2 are resuspended in 10 mM Hepes, 7.4 containing 1 mM DTT, lysed and centrifuged at 75,000×g to pellet the membranes. The membranes are resuspended in 10 mM Hepes, 7.4 containing 1 mM DTT and 10% glycerol to approximately 5 mg protein/ml. Membranes (2-10 μg protein/well) are incubated in 96-well plates with 1 nM [^3H]PGD2 and test compound in Assay Buffer (50 mM Hepes, 10 mM MnCl2, 1 mM EDTA, plus or minus 0.2% human serum albumin, pH 7.4) for 60 minutes at room temperature. The reactions are terminated by rapid filtration through Whatman GF/C glass fibre filter plates. The filter plates were pre-soaked in 0.33% polythylenimine for 30 minutes at room temperature then washed in Wash Buffer (50 mM Hepes, 0.5 M NaCl pH 7.4) prior to harvesting. After harvesting, the filter plates are washed 3 times with 1 ml cold Wash Buffer then dried. Scintillant is then added to the plates and the radioactivity retained on the filters is determined on a Packard TopCount (Perkin Elmer). Specific binding is determined as total radioactive binding minus non-specific binding in the presence of 10 μM PGD2. IC50s were determined using GraphPad prism analysis of drug titration curves.

How did the IC50 turn out when COc1ccc(CC(=O)O)cc1-c1ccc(C(F)(F)F)cc1CN1CCOC1=O [Compound 1-1, [6-Methoxy-2′-(2-oxo-oxazolidin-3-ylmethyl)-4′-trifluoromethyl-biphenyl-3-yl]-acetic acid] was run?
The IC50 was under 300 nM.

For COc1ccc(-c2ccc(C(F)(F)F)cc2CN2CCOC2=O)cc1CC(=O)O [Compound 1-2, [4-Methoxy-2′-(2-oxo-oxazolidin-3-ylmethyl)-4′-trifluoromethyl-biphenyl-3-yl]-acetic acid], which IC50 is on record?
The IC50 was under 300 nM.

How did the IC50 turn out when COc1ccc(CC(=O)O)cc1-c1ccccc1CN1C(=O)O[C@H](c2ccccc2)[C@@H]1C [Compound 1-3, [6-Methoxy-2′-((4S,5R)-4-methyl-2-oxo-5-phenyl-oxazolidin-3-ylmethyl)-biphenyl-3-yl]-acetic acid] was run?
Its IC50 is 300 to 1000 nM.

For COc1ccc(CC(=O)O)cc1-c1ccc(F)cc1CN1C(=O)O[C@H](c2ccccc2)[C@@H]1C [Compound 1-4, [4′-Fluoro-6-methoxy-2′-((4S,5R)-4-methyl-2-oxo-5-phenyl-oxazolidin-3-ylmethyl)-biphenyl-3-yl]-acetic acid], which IC50 is on record?
Its IC50 is under 300 nM.

COc1ccc(-c2cc(CC(=O)O)ccc2OC)c(CN2C(=O)O[C@H](c3ccccc3)[C@@H]2C)c1 [Compound 1-5, [6,4′-Dimethoxy-2′-((4S,5R)-4-methyl-2-oxo-5-phenyl-oxazolidin-3-ylmethyl)-biphenyl-3-yl]-acetic acid] was tested. Which IC50 did it give?
The IC50 was over 1000 nM.

Which IC50 does the source give for C[C@H]1[C@@H](c2ccccc2)OC(=O)N1Cc1cc(C(F)(F)F)ccc1-c1cccc(CC(=O)O)c1 [Compound 1-6, [2′-((4S,5R)-4-Methyl-2-oxo-5-phenyl-oxazolidin-3-ylmethyl)-4′-trifluoromethyl-biphenyl-3-yl]-acetic acid] here?
The IC50 was 300 to 1000 nM.

For C[C@H]1[C@@H](c2ccccc2)OC(=O)N1Cc1cc(C(F)(F)F)ccc1-c1ccc(F)c(CC(=O)O)c1 [Compound 1-7, [4-Fluoro-2′-((4S,5R)-4-methyl-2-oxo-5-phenyl-oxazolidin-3-ylmethyl)-4′-trifluoromethyl-biphenyl-3-yl]-acetic acid], which IC50 is on record?
The IC50 was 300 to 1000 nM.

How did the IC50 turn out when COc1ccc(-c2ccc(C(F)(F)F)cc2CN2C(=O)O[C@H](c3ccccc3)[C@@H]2C)cc1CC(=O)O [Compound 1-8, [4-Methoxy-2′-((4S,5R)-4-methyl-2-oxo-5-phenyl-oxazolidin-3-ylmethyl)-4′-trifluoromethyl-biphenyl-3-yl]-acetic acid] was run?
The IC50 was under 300 nM.

C[C@H]1[C@@H](c2ccccc2)OC(=O)N1Cc1cc(C(F)(F)F)ccc1-c1cc(CC(=O)O)ccc1F [Compound 1-9, [6-Fluoro-2′-((4S,5R)-4-methyl-2-oxo-5-phenyl-oxazolidin-3-ylmethyl)-4′-trifluoromethyl-biphenyl-3-yl]-acetic acid] was tested. Which IC50 did it give?
The IC50 was under 300 nM.

COc1ccc(CC(=O)O)cc1-c1ccc(C(F)(F)F)cc1CN1C(=O)O[C@H](c2ccccc2)[C@@H]1C [Compound 1-10, [6-Methoxy-2′-((4S,5R)-4-methyl-2-oxo-5-phenyl-oxazolidin-3-ylmethyl)-4′-trifluoromethyl-biphenyl-3-yl]-acetic acid] was tested. Which IC50 did it give?
The IC50 was under 300 nM.

COc1ccc(CC(=O)O)cc1-c1ccc(C(F)(F)F)cc1CN1C(=O)O[C@@H](c2ccccc2)[C@H]1C [Compound 1-11, [6-Methoxy-2′-((4R,5S)-4-methyl-2-oxo-5-phenyl-oxazolidin-3-ylmethyl)-4′-trifluoromethyl-biphenyl-3-yl]-acetic acid] was tested. Which IC50 did it give?
The IC50 was over 1000 nM.

COc1ccc(C(C)C(=O)O)cc1-c1ccc(C(F)(F)F)cc1CN1C(=O)O[C@H](c2ccccc2)[C@@H]1C (stereo partly drawn) [Compound 1-12, 2-[6-Methoxy-2′-((4S,5R)-4-methyl-2-oxo-5-phenyl-oxazolidin-3-ylmethyl)-4′-trifluoromethyl-biphenyl-3-yl]-propionic acid] was tested. Which IC50 did it give?
Its IC50 is under 300 nM.

For COc1ccc(CC(=O)O)cc1-c1ccc(C(F)(F)F)cc1CN1C(=O)O[C@H](c2cc(C(F)(F)F)cc(C(F)(F)F)c2)[C@@H]1C [Compound 1-13, {2′-[(4S,5R)-5-(3,5-Bis-trifluoromethyl-phenyl)-4-methyl-2-oxo-oxazolidin-3-ylmethyl]-6-methoxy-4′-trifluoromethyl-biphenyl-3-yl}-acetic acid], which IC50 is on record?
Its IC50 is under 300 nM.

With CCOc1ccc(CC(=O)O)cc1-c1ccc(C(F)(F)F)cc1CN1C(=O)O[C@H](c2ccccc2)[C@@H]1C [Compound 1-14, [6-Ethoxy-2′-((4S,5R)-4-methyl-2-oxo-5-phenyl-oxazolidin-3-ylmethyl)-4′-trifluoromethyl-biphenyl-3-yl]-acetic acid] as the compound, how does the IC50 read?
The IC50 was under 300 nM.

How did the IC50 turn out when C[C@H]1[C@@H](c2ccccc2)OC(=O)N1Cc1cc(C(F)(F)F)ccc1-c1cc(CC(=O)O)ccc1OCC1CC1 [Compound 1-15, [6-Cyclopropylmethoxy-2′-((4S,5R)-4-methyl-2-oxo-5-phenyl-oxazolidin-3-ylmethyl)-4′-trifluoromethyl-biphenyl-3-yl]-acetic acid] was run?
Its IC50 is under 300 nM.

For C[C@H]1[C@@H](c2ccccc2)OC(=O)N1Cc1cc(C(F)(F)F)ccc1-c1cc(CC(=O)O)ccc1OCC(=O)O [Compound 1-16, [6-Carboxymethoxy-2′-((4S,5R)-4-methyl-2-oxo-5-phenyl-oxazolidin-3-ylmethyl)-4′-trifluoromethyl-biphenyl-3-yl]-acetic acid], which IC50 is on record?
The IC50 was 300 to 1000 nM.

C[C@H]1[C@@H](c2ccccc2)OC(=O)N1Cc1cc(C(F)(F)F)ccc1-c1cc(CC(=O)O)ccc1OCc1ccccc1 [Compound 1-17, [6-Benzyloxy-2′-((4S,5R)-4-methyl-2-oxo-5-phenyl-oxazolidin-3-ylmethyl)-4′-trifluoromethyl-biphenyl-3-yl]-acetic acid] was tested. Which IC50 did it give?
Its IC50 is under 300 nM.

How did the IC50 turn out when C[C@H]1[C@@H](c2ccccc2)OC(=O)N1Cc1cc(C(F)(F)F)ccc1-c1cc(CC(=O)O)ccc1OCc1ccc(Cl)cc1 [Compound 1-18, [6-(4-Chloro-benzyloxy)-2′-((4S,5R)-4-methyl-2-oxo-5-phenyl-oxazolidin-3-ylmethyl)-4′-trifluoromethyl-biphenyl-3-yl]-acetic acid] was run?
The IC50 was under 300 nM.

Which IC50 does the source give for C[C@H]1[C@@H](c2ccccc2)OC(=O)N1Cc1cc(C(F)(F)F)ccc1-c1cc(CC(=O)O)ccc1-c1ccccc1 [Compound 1-19, [2″-((4S,5R)-4-Methyl-2-oxo-5-phenyl-oxazolidin-3-ylmethyl)-4″-trifluoromethyl-[1,1′;2′,1″]terphenyl-4′-yl]-acetic acid] here?
The IC50 was under 300 nM.

Which IC50 does the source give for C[C@H]1[C@@H](c2ccccc2)OC(=O)N1Cc1cc(C(F)(F)F)ccc1-c1cc(CC(=O)O)ccc1-c1cccnc1 [Compound 1-20, [2′-((4S,5R)-4-Methyl-2-oxo-5-phenyl-oxazolidin-3-ylmethyl)-6-pyridin-3-yl-4′-trifluoromethyl-biphenyl-3-yl]-acetic acid] here?
Its IC50 is under 300 nM.

How did the IC50 turn out when C[C@H]1[C@@H](c2ccccc2)OC(=O)N1Cc1cc(C(F)(F)F)ccc1-c1cc(CC(=O)O)ccc1-c1cnn(C)c1 [Compound 1-21, [2′-((4S,5R)-4-Methyl-2-oxo-5-phenyl-oxazolidin-3-ylmethyl)-6-(1-methyl-1H-pyrazol-4-yl)-4′-trifluoromethyl-biphenyl-3-yl]-acetic acid] was run?
Its IC50 is 300 to 1000 nM.

For COc1ccc(CC(=O)O)cc1-c1ccc(C(F)(F)F)cc1CN1C(=O)NC(C)(c2ccccc2)C1=O (stereo not shown) [Compound 2-1, [6-Methoxy-2′-(4-methyl-2,5-dioxo-4-phenyl-imidazolidin-1-ylmethyl)-4′-trifluoromethyl-biphenyl-3-yl]-acetic acid], which IC50 is on record?
Its IC50 is over 1000 nM.

For COc1ccc(CC(=O)O)cc1-c1ccc(C(F)(F)F)cc1CN1C(=O)N(CC(=O)O)C(C)(c2ccccc2)C1=O (stereo not shown) [Compound 2-2, [2′-(3-Carboxymethyl-4-methyl-2,5-dioxo-4-phenyl-imidazolidin-1-ylmethyl)-6-methoxy-4′-trifluoromethyl-biphenyl-3-yl]-acetic acid], which IC50 is on record?
The IC50 was over 1000 nM.

COc1ccc(CC(=O)O)cc1-c1ccc(C(F)(F)F)cc1CN1CCN=C1C [Compound 3-1, [6-Methoxy-2′-(2-methyl-4,5-dihydro-imidazol-1-ylmethyl)-4′-trifluoromethyl-biphenyl-3-yl]-acetic acid] was tested. Which IC50 did it give?
Its IC50 is over 1000 nM.

How did the IC50 turn out when O=C(O)CCn1c2c(c3ccccc31)C[C@H](NS(=O)(=O)c1ccc(F)cc1)CC2 [Ramatroban, reference compound] was run?
The IC50 was 300 to 1000 nM.
